Experimental data reported in the CheMixHub viscosity set.
“And” between values parts separate entries of the source, which are not always exact repeats. Identical values can stand only once. ± gives the uncertainty stated by the source.

Assay: xn = mol fraction of the nth substance listed

CCN(C=O)CC + NC=O
viscosity [mPa·s]
Conditions | 298.15 K | 308.15 K | 323.15 K
101 kPa, x1 = 0.1 | 3.55 ± 0.09 | 2.91 ± 0.08 | 2.27 ± 0.06
101 kPa, x1 = 0.2 | 3.62 ± 0.1 | 2.97 ± 0.08 | 2.29 ± 0.06
101 kPa, x1 = 0.3 | 3.51 ± 0.09 | 2.86 ± 0.08 | 2.15 ± 0.06
101 kPa, x1 = 0.4 | 3.25 ± 0.09 | 2.62 ± 0.07 | 1.91 ± 0.05
101 kPa, x1 = 0.5 | 2.93 ± 0.08 | 2.34 ± 0.06 | 1.64 ± 0.04
101 kPa, x1 = 0.6 | 2.52 ± 0.07 | 2.01 ± 0.05 | 1.43 ± 0.04
101 kPa, x1 = 0.7 | 2.24 ± 0.06 | 1.71 ± 0.05 | 1.22 ± 0.03
101 kPa, x1 = 0.85 | 1.61 ± 0.04 | 1.34 ± 0.04 | 1.01 ± 0.03
101.33 kPa, x2 = 0.07537 | 1.391 ± 0.009 | – | 0.937 ± 0.006
101.33 kPa, x2 = 0.1513 | 1.585 ± 0.01 | – | 1.034 ± 0.007
101.33 kPa, x2 = 0.2164 | 1.736 ± 0.011 | – | 1.103 ± 0.007
101.33 kPa, x2 = 0.2957 | 2.021 ± 0.012 | – | 1.26 ± 0.008
101.33 kPa, x2 = 0.3723 | 2.312 ± 0.014 | – | 1.37 ± 0.009
101.33 kPa, x2 = 0.4452 | 2.614 ± 0.016 | – | 1.503 ± 0.009
101.33 kPa, x2 = 0.4964 | 2.776 ± 0.016 | – | 1.603 ± 0.01
101.33 kPa, x2 = 0.5665 | 3.138 ± 0.018 | – | 1.757 ± 0.011
101.33 kPa, x2 = 0.6362 | 3.333 ± 0.019 | – | 1.859 ± 0.011
101.33 kPa, x2 = 0.7013 | 3.547 ± 0.02 | – | 1.942 ± 0.012
101.33 kPa, x2 = 0.7404 | 3.678 ± 0.021 | – | 1.99 ± 0.012
101.33 kPa, x2 = 0.785 | 3.722 ± 0.021 | – | 2.046 ± 0.012
101.33 kPa, x2 = 0.8471 | 3.663 ± 0.021 | – | 2.045 ± 0.012
101.33 kPa, x2 = 0.93 | 3.516 ± 0.02 | – | 1.978 ± 0.012

COCCO + NCCO
viscosity [mPa·s], 101.3 kPa
Conditions | x2 = 0.122 | x2 = 0.348 | x2 = 0.916
298.15 K | 2.065 ± 0.086 | 3.765 ± 0.16 | –
308.15 K | – | – | 10.55 ± 0.44

C1CNCCN1 + O
Conditions | viscosity
293.15 K, 100 kPa, x1 = 0.02273 | 1.608 ± 0.053 mPa·s
298.15 K, 101 kPa, x1 = 0.0292 | 1.877 ± 0.044 mPa·s
303.15 K, 101 kPa, x1 = 0.00369 | 0.86 ± 0.04 mPa·s
303.15 K, 101 kPa, x1 = 0.005 | 0.84 ± 0.04 mPa·s
303.15 K, 101 kPa, x1 = 0.01 | 0.93 ± 0.04 mPa·s
303.15 K, 101 kPa, x1 = 0.0113 | 0.97 ± 0.05 mPa·s
303.15 K, 101 kPa, x1 = 0.02 | 1.13 ± 0.05 mPa·s
303.15 K, 101 kPa, x1 = 0.02358 | 1.28 ± 0.06 mPa·s
303.15 K, 101 kPa, x1 = 0.025 | 1.28 ± 0.05 mPa·s
303.15 K, 101 kPa, x1 = 0.03 | 1.41 ± 0.06 mPa·s
303.15 K, 101 kPa, x1 = 0.035 | 1.57 ± 0.07 mPa·s
303.15 K, 101 kPa, x1 = 0.04 | 1.76 ± 0.07 mPa·s
303.15 K, 101 kPa, x1 = 0.045 | 1.91 ± 0.08 mPa·s
313.15 K, 100 kPa, x1 = 0.02273 | 0.9677 ± 0.032 mPa·s and 0.988 ± 0.021 mPa·s
313.15 K, 101 kPa, x1 = 0.005 | 0.67 ± 0.03 mPa·s
313.15 K, 101 kPa, x1 = 0.01 | 0.74 ± 0.03 mPa·s
313.15 K, 101 kPa, x1 = 0.0113 | 0.76 ± 0.04 mPa·s
313.15 K, 101 kPa, x1 = 0.015 | 0.81 ± 0.03 mPa·s
313.15 K, 101 kPa, x1 = 0.02 | 0.89 ± 0.04 mPa·s
313.15 K, 101 kPa, x1 = 0.02358 | 1.02 ± 0.05 mPa·s
313.15 K, 101 kPa, x1 = 0.025 | 0.99 ± 0.04 mPa·s
313.15 K, 101 kPa, x1 = 0.0292 | 1.307 ± 0.032 mPa·s
313.15 K, 101 kPa, x1 = 0.03 | 1.08 ± 0.04 mPa·s
313.15 K, 101 kPa, x1 = 0.04 | 1.33 ± 0.05 mPa·s
313.15 K, 101 kPa, x1 = 0.045 | 1.43 ± 0.06 mPa·s
318.15 K, 101 kPa, x1 = 0.00369 | 0.61 ± 0.03 mPa·s
318.15 K, 101 kPa, x1 = 0.0113 | 0.69 ± 0.04 mPa·s
318.15 K, 101 kPa, x1 = 0.02358 | 0.92 ± 0.05 mPa·s
323.15 K, 101 kPa, x1 = 0.005 | 0.51 ± 0.02 mPa·s
323.15 K, 101 kPa, x1 = 0.01 | 0.59 ± 0.03 mPa·s
323.15 K, 101 kPa, x1 = 0.0113 | 0.62 ± 0.03 mPa·s
323.15 K, 101 kPa, x1 = 0.02 | 0.71 ± 0.03 mPa·s
323.15 K, 101 kPa, x1 = 0.02358 | 0.81 ± 0.04 mPa·s
323.15 K, 101 kPa, x1 = 0.025 | 0.8 ± 0.03 mPa·s
323.15 K, 101 kPa, x1 = 0.03 | 0.86 ± 0.04 mPa·s
323.15 K, 101 kPa, x1 = 0.035 | 0.95 ± 0.04 mPa·s
323.15 K, 101 kPa, x1 = 0.04 | 1.04 ± 0.04 mPa·s
323.15 K, 101 kPa, x1 = 0.045 | 1.11 ± 0.05 mPa·s

CCCC(=O)O + O
Conditions | viscosity [mPa·s]
293.15 K, 101 kPa, x1 = 0.015 | 1.31 ± 0.01
293.15 K, 101 kPa, x1 = 0.034 | 1.64 ± 0.02
293.15 K, 101 kPa, x1 = 0.078 | 2.41 ± 0.02
293.15 K, 101 kPa, x1 = 0.165 | 3.24 ± 0.04
293.15 K, 101 kPa, x1 = 0.316 | 3.71 ± 0.05
293.15 K, 101 kPa, x1 = 0.497 | 3.6 ± 0.06
293.15 K, 101 kPa, x1 = 0.664 | 3.25 ± 0.06
293.15 K, 101.33 kPa, x1 = 0.0222 | 1.332 ± 0.013
293.15 K, 101.33 kPa, x1 = 0.0806 | 2.265 ± 0.023
293.15 K, 101.33 kPa, x1 = 0.17 | 3.095 ± 0.031
298.15 K, 101 kPa, x1 = 0.006288 | 0.973 ± 0.026
298.15 K, 101 kPa, x1 = 0.01294 | 1.065 ± 0.029
298.15 K, 101 kPa, x1 = 0.02 | 1.152 ± 0.031
298.15 K, 101 kPa, x1 = 0.02743 | 1.248 ± 0.034
298.15 K, 101 kPa, x1 = 0.03475 | 1.344 ± 0.036
298.15 K, 101 kPa, x1 = 0.04154 | 1.44 ± 0.039
298.15 K, 101 kPa, x1 = 0.04898 | 1.55 ± 0.042
298.15 K, 101 kPa, x1 = 0.05981 | 1.695 ± 0.046
298.15 K, 101 kPa, x1 = 0.07342 | 1.881 ± 0.051
298.15 K, 101 kPa, x1 = 0.08697 | 2.038 ± 0.055
298.15 K, 101 kPa, x1 = 0.1045 | 2.222 ± 0.06
298.15 K, 101 kPa, x1 = 0.1191 | 2.365 ± 0.064
298.15 K, 101 kPa, x1 = 0.133 | 2.463 ± 0.066
298.15 K, 101 kPa, x1 = 0.144 | 2.538 ± 0.068
298.15 K, 101 kPa, x1 = 0.17 | 2.699 ± 0.073
298.15 K, 101 kPa, x1 = 0.2 | 2.823 ± 0.076
298.15 K, 101 kPa, x1 = 0.237 | 2.941 ± 0.079
298.15 K, 101 kPa, x1 = 0.277 | 3.039 ± 0.081
298.15 K, 101 kPa, x1 = 0.321 | 3.121 ± 0.084
298.15 K, 101 kPa, x1 = 0.36 | 3.129 ± 0.084
298.15 K, 101 kPa, x1 = 0.408 | 3.136 ± 0.084
298.15 K, 101 kPa, x1 = 0.472 | 3.095 ± 0.083
298.15 K, 101 kPa, x1 = 0.529 | 3.032 ± 0.081
298.15 K, 101 kPa, x1 = 0.618 | 2.861 ± 0.076
298.15 K, 101 kPa, x1 = 0.669 | 2.702 ± 0.072
298.15 K, 101 kPa, x1 = 0.816 | 2.249 ± 0.06
308.15 K, 101 kPa, x1 = 0.006288 | 0.777 ± 0.021
308.15 K, 101 kPa, x1 = 0.01294 | 0.844 ± 0.023
308.15 K, 101 kPa, x1 = 0.02 | 0.911 ± 0.024
308.15 K, 101 kPa, x1 = 0.02743 | 0.979 ± 0.026
308.15 K, 101 kPa, x1 = 0.03475 | 1.048 ± 0.028
308.15 K, 101 kPa, x1 = 0.04154 | 1.12 ± 0.03
308.15 K, 101 kPa, x1 = 0.04898 | 1.201 ± 0.032
308.15 K, 101 kPa, x1 = 0.05981 | 1.308 ± 0.035
308.15 K, 101 kPa, x1 = 0.07342 | 1.445 ± 0.039
308.15 K, 101 kPa, x1 = 0.08697 | 1.563 ± 0.042
308.15 K, 101 kPa, x1 = 0.1045 | 1.695 ± 0.046
308.15 K, 101 kPa, x1 = 0.1191 | 1.769 ± 0.048
308.15 K, 101 kPa, x1 = 0.133 | 1.873 ± 0.05
308.15 K, 101 kPa, x1 = 0.144 | 1.932 ± 0.052
308.15 K, 101 kPa, x1 = 0.17 | 2.049 ± 0.055
308.15 K, 101 kPa, x1 = 0.2 | 2.15 ± 0.058
308.15 K, 101 kPa, x1 = 0.237 | 2.243 ± 0.06
308.15 K, 101 kPa, x1 = 0.277 | 2.322 ± 0.062
308.15 K, 101 kPa, x1 = 0.321 | 2.392 ± 0.064
308.15 K, 101 kPa, x1 = 0.36 | 2.415 ± 0.065
308.15 K, 101 kPa, x1 = 0.408 | 2.415 ± 0.065
308.15 K, 101 kPa, x1 = 0.472 | 2.398 ± 0.064
308.15 K, 101 kPa, x1 = 0.529 | 2.358 ± 0.063
308.15 K, 101 kPa, x1 = 0.618 | 2.248 ± 0.06
308.15 K, 101 kPa, x1 = 0.669 | 2.142 ± 0.057
308.15 K, 101 kPa, x1 = 0.816 | 1.819 ± 0.049
313.15 K, 101.33 kPa, x1 = 0.0222 | 0.848 ± 0.0085
313.15 K, 101.33 kPa, x1 = 0.0806 | 1.327 ± 0.013
313.15 K, 101.33 kPa, x1 = 0.17 | 1.786 ± 0.018

OCC(O)C(O)CO (centres undefined) + O
viscosity [mPa·s], 101 kPa
Conditions | 293.15 K | 298.15 K | 303.15 K | 308.15 K | 313.15 K | 318.15 K | 323.15 K
x1 = 0.005 | 1.176 ± 0.011 | 1.05 ± 0.01 | 0.915 ± 0.009 | 0.79 ± 0.008 | – | 0.649 ± 0.006 | 0.62 ± 0.006
x1 = 0.01 | – | 1.152 ± 0.011 | 1.021 ± 0.01 | 0.912 ± 0.009 | 0.821 ± 0.008 | 0.744 ± 0.007 | 0.679 ± 0.007
x1 = 0.015 | 1.42 ± 0.013 | 1.25 ± 0.012 | 1.109 ± 0.01 | 0.968 ± 0.009 | 0.891 ± 0.009 | 0.808 ± 0.008 | 0.736 ± 0.007
x1 = 0.02 | 1.53 ± 0.014 | 1.327 ± 0.012 | 1.191 ± 0.011 | 1.053 ± 0.01 | 0.965 ± 0.009 | 0.86 ± 0.008 | 0.813 ± 0.008
